Article PMC8550792, “Evolution of kinase polypharmacology across HSP90 drug discovery” (Cell Chemical Biology, 2021)

How the values were obtained:
MET = tested on: MET; design: method as in ChEMBL23 (accessed: 23/08/2018); details: average of reported values; ref ChEMBL23 (accessed: 23/08/2018); cited from earlier work
c-Src = target: T1, c-Src (Homo sapiens, UniProt P12931); assay: HotSpot in vitro kinase radiometric assay; assay type: biochemical
T1 construct: purchased Reaction Biology (HotSpot contract assay)
Method in brief: (§1)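 Radiometric catalytic assay: compounds incubated with kinase, substrate, cofactors and ³²P- or ³³P-γ-ATP. Reactions spotted onto filter paper that binds the labeled product, giving a direct measure of inhibition of catalytic activity without modified substrates or coupling enzymes.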

LYN B = target: T2, LYN B (Homo sapiens, UniProt P07948); assay: HotSpot in vitro kinase radiometric assay; assay type: biochemical
T2 construct: purchased Reaction Biology (HotSpot contract assay)
Method in brief: as §1

PDK4/PDKH4 = target: T3, PDK4/PDKH4 (Homo sapiens, UniProt Q16654); assay: HotSpot in vitro kinase radiometric assay; assay type: biochemical
T3 construct: purchased Reaction Biology (HotSpot contract assay)
Method in brief: as §1

BLK = target: T4, BLK (Homo sapiens, UniProt P51451); assay: HotSpot in vitro kinase radiometric assay; assay type: biochemical
T4 construct: purchased Reaction Biology (HotSpot contract assay)
Method in brief: as §1

PDK2/PDHK2 = target: T5, PDK2/PDHK2 (Homo sapiens, UniProt Q15119); assay: HotSpot in vitro kinase radiometric assay; assay type: biochemical
T5 construct: purchased Reaction Biology (HotSpot contract assay)
Method in brief: as §1

FGR = target: T6, FGR (Homo sapiens, UniProt P09769); assay: HotSpot in vitro kinase radiometric assay; assay type: biochemical
T6 construct: purchased Reaction Biology (HotSpot contract assay)
T6 sequence (P09769 whole entry): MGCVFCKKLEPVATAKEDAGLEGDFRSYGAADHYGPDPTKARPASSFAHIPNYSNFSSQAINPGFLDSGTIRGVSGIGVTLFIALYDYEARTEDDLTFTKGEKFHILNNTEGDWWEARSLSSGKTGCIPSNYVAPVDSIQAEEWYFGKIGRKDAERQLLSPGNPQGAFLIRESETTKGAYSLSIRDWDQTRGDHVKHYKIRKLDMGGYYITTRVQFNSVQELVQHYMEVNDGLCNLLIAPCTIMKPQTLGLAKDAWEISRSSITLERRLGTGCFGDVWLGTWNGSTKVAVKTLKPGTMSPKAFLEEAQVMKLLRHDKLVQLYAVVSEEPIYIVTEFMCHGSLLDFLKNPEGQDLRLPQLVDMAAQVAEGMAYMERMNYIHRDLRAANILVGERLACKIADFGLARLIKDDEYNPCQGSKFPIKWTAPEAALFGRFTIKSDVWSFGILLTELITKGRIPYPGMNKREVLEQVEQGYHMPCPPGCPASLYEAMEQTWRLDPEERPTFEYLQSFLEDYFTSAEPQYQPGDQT

ABL1 = ABL1 (Homo sapiens, UniProt P00519); assay: HotSpot in vitro kinase radiometric assay; assay type: biochemical; design: purchased Reaction Biology (HotSpot contract assay)
Chain of ABL1 (P00519 whole entry): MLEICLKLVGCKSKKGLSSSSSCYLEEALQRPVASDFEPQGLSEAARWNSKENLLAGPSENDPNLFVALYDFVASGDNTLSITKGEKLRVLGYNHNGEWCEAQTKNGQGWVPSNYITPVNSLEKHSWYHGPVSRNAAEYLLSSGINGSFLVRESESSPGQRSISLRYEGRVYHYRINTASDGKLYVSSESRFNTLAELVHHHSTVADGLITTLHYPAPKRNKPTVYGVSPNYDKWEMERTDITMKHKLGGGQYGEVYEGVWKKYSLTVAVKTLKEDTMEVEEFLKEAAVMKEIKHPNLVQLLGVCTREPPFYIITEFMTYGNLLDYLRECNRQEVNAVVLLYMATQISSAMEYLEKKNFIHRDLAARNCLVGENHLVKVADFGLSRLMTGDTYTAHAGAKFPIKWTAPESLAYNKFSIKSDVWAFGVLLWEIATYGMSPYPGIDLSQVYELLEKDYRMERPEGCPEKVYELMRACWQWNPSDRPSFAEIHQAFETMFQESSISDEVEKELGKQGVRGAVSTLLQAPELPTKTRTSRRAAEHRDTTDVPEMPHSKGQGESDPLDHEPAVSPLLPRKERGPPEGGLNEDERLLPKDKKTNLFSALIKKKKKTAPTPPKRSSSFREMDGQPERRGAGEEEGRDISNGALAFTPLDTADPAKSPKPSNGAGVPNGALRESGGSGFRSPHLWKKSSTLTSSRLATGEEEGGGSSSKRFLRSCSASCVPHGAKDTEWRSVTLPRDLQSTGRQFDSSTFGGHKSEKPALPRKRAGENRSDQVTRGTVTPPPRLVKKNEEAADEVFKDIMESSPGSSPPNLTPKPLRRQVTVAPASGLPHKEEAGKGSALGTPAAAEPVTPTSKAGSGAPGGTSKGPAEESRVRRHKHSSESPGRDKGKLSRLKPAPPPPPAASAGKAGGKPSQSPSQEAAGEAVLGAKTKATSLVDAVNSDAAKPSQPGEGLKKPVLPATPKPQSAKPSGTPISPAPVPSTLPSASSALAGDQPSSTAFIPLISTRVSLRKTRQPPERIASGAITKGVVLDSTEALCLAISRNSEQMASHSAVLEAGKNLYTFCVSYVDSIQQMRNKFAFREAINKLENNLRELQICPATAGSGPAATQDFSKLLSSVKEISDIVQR

YES/YES1 = target: T7, YES/YES1 (Homo sapiens, UniProt P07947); assay: HotSpot in vitro kinase radiometric assay; assay type: biochemical
T7 construct: purchased Reaction Biology (HotSpot contract assay)

ABL2/ARG = target: T8, ABL2/ARG (Homo sapiens, UniProt P42684); assay: HotSpot in vitro kinase radiometric assay; assay type: biochemical
T8 construct: purchased Reaction Biology (HotSpot contract assay)
T8 sequence (P42684 whole entry): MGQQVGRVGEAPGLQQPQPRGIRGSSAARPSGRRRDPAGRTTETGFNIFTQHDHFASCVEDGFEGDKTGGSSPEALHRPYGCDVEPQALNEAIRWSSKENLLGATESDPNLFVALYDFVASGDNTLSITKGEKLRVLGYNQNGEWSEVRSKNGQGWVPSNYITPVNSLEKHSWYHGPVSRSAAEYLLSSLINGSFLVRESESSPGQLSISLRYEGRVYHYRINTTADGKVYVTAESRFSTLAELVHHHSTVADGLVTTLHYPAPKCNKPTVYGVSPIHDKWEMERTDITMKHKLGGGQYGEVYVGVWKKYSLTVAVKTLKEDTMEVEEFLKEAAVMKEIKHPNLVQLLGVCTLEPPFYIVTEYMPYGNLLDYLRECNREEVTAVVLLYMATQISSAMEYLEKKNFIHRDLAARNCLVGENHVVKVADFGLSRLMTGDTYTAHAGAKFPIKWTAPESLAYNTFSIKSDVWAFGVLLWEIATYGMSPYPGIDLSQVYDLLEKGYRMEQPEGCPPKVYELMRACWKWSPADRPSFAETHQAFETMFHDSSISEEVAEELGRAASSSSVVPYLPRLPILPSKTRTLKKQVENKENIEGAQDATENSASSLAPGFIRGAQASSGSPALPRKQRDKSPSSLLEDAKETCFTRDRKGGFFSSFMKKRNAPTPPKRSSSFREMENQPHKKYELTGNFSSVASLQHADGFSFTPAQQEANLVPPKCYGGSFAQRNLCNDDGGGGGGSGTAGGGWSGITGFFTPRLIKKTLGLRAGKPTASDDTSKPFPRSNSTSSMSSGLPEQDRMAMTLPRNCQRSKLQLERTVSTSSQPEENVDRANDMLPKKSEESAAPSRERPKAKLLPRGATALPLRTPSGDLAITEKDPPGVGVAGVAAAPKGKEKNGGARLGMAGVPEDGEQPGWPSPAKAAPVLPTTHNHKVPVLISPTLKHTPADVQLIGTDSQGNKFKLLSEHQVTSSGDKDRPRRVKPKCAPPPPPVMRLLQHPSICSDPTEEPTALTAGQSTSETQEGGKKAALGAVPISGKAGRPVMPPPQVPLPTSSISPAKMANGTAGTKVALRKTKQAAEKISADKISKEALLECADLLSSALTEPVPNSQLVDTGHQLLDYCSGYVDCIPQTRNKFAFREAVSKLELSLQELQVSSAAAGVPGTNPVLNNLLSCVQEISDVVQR

HSP90AB1 = tested on: HSP90AB1; design: method as in ChEMBL23 (accessed: 23/08/2018); details: average of reported values; ref ChEMBL23 (accessed: 23/08/2018); cited from earlier work
TRKC = target: T9, TRKC (Homo sapiens, UniProt Q16288); assay: HotSpot in vitro kinase radiometric assay; assay type: biochemical
T9 construct: purchased Reaction Biology (HotSpot contract assay)

TRKA = target: T10, TRKA (Homo sapiens, UniProt P04629); assay: HotSpot in vitro kinase radiometric assay; assay type: biochemical
T10 construct: purchased Reaction Biology (HotSpot contract assay)
Method in brief: as §1

PASK = target: T11, PASK (Homo sapiens, UniProt Q96RG2); assay: HotSpot in vitro kinase radiometric assay; assay type: biochemical
T11 construct: purchased Reaction Biology (HotSpot contract assay)
Method in brief: as §1

FYN = target: T12, FYN (Homo sapiens, UniProt P06241); assay: HotSpot in vitro kinase radiometric assay; assay type: biochemical
T12 construct: purchased Reaction Biology (HotSpot contract assay)
T12 sequence (P06241 whole entry): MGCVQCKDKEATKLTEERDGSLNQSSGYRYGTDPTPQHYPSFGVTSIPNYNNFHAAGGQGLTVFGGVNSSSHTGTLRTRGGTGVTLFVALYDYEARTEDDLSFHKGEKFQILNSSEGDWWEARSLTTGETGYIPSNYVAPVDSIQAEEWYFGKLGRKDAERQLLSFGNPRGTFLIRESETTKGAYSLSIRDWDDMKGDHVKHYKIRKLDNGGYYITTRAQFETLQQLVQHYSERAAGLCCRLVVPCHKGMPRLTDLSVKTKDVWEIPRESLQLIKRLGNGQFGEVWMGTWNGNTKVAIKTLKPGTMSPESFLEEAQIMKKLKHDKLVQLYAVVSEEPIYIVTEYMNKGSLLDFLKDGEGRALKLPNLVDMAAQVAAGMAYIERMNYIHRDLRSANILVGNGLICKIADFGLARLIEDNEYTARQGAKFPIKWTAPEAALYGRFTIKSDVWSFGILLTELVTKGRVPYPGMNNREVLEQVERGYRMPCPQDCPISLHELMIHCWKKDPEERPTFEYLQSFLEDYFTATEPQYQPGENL

LCK = target: T13, LCK (Homo sapiens, UniProt P06239); assay: HotSpot in vitro kinase radiometric assay; assay type: biochemical
T13 construct: purchased Reaction Biology (HotSpot contract assay)

DDR1 = DDR1 (Homo sapiens, UniProt Q08345); assay: HotSpot in vitro kinase radiometric assay; assay type: biochemical; design: purchased Reaction Biology (HotSpot contract assay)
LTK = tested on: LTK; design: method as in ChEMBL23 (accessed: 23/08/2018); details: average of reported values; ref ChEMBL23 (accessed: 23/08/2018); cited from earlier work
PIM1 = tested on: PIM1; design: method as in ChEMBL23 (accessed: 23/08/2018); details: average of reported values; ref ChEMBL23 (accessed: 23/08/2018); cited from earlier work
PEAK1 = target: T14, PEAK1 (Homo sapiens, UniProt Q9H792); assay: HotSpot in vitro kinase radiometric assay; assay type: biochemical
T14 construct: purchased Reaction Biology (HotSpot contract assay)
T14 sequence (Q9H792 whole entry): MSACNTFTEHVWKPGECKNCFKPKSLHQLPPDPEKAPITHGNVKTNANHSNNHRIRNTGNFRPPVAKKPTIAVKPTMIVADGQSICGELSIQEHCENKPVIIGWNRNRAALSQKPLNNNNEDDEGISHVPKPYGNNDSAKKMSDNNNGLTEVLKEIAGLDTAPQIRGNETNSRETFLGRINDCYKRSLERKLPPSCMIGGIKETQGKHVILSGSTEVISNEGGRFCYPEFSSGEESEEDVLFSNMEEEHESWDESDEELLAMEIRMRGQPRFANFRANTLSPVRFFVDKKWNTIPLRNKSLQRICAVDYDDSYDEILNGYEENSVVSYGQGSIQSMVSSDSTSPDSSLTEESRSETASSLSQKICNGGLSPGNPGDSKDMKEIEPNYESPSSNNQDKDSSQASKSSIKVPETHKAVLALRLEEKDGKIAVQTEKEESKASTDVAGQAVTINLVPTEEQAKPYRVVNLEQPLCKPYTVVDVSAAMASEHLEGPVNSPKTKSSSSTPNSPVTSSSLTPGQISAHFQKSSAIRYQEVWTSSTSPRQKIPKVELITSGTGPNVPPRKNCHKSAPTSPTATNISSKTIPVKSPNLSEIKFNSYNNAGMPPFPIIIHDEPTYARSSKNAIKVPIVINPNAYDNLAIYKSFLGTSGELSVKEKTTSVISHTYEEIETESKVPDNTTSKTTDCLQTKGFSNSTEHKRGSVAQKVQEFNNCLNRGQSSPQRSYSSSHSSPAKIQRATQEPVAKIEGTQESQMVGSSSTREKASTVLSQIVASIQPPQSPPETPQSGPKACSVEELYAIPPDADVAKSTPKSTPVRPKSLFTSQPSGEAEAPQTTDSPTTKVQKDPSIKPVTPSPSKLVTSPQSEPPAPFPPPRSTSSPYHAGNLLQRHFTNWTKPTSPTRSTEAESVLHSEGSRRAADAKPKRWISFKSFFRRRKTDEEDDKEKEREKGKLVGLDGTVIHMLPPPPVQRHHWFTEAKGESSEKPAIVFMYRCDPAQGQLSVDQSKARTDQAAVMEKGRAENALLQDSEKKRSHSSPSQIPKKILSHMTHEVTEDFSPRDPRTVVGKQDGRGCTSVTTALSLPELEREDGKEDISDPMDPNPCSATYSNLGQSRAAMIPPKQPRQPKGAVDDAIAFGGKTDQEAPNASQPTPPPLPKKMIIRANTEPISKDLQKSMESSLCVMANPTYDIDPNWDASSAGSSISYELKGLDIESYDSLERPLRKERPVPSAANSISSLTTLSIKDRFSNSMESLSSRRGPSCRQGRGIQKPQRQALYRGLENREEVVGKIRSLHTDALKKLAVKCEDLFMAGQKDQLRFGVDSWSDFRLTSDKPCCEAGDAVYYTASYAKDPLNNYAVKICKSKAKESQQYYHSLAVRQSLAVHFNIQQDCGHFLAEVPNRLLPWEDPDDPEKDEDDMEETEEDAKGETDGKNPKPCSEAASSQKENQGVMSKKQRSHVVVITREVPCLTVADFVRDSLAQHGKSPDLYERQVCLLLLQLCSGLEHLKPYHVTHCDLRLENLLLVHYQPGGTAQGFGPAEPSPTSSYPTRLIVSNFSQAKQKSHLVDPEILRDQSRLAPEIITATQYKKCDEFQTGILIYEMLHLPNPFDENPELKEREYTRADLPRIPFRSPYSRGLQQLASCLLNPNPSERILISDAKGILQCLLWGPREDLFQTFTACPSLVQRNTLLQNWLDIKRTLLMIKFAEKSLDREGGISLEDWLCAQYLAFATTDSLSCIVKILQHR

SMILES: CCc1cc(-c2[nH]nc(C)c2-c2ccc3c(c2)OCCO3)c(O)cc1O [CCT018159]
- pActivity, MET (MET): 5.6
- remaining activity at 10 µM (c-Src; c-Src, 10uM, ATP 15 uM, Data 1, Data 2, read-out: % Enzyme Activity (relative to DMSO controls)): 86.2%
- inhibition at 10 µM (c-Src; read-out: % inhibition at 10 uM: SRC, 10 μM, Fig 6C median ± standard deviation (n = 2)): 14 ± 1%
- remaining activity at 10 µM (LYN B; LYN B, 10uM, ATP 20 uM, Data 1, Data 2, read-out: % Enzyme Activity (relative to DMSO controls)): 100%
- inhibition at 10 µM (LYN B; read-out: % inhibition at 10 uM: LYN B, 10 μM, Fig 6C median ± standard deviation (n = 2)): -1 ± 1%
- remaining activity at 10 µM (PDK4/PDKH4; PDK4/PDKH4, 10uM, ATP 30 uM, Data 1, Data 2, read-out: % Enzyme Activity (relative to DMSO controls)): 66.3%
- inhibition at 10 µM (PDK4/PDKH4; read-out: % inhibition at 10 uM: PDK4, 10 μM, Fig 6C median ± standard deviation (n = 2)): 33 ± 1%
- remaining activity at 10 µM (BLK; BLK, 10uM, ATP 10 uM, Data 1, Data 2, read-out: % Enzyme Activity (relative to DMSO controls)): 15.3%
- inhibition at 10 µM (BLK; read-out: % inhibition at 10 uM: BLK, 10 μM, Fig 6C median ± standard deviation (n = 2)): 85 ± 1%
- remaining activity at 10 µM (PDK2/PDHK2; PDK2/PDHK2, 10uM, ATP 15 uM, Data 1, Data 2, read-out: % Enzyme Activity (relative to DMSO controls)): 42.8%
- inhibition at 10 µM (PDK2/PDHK2; read-out: % inhibition at 10 uM: PDK2, 10 μM, Fig 6C median ± standard deviation (n = 2)): 50 ± 10%
- remaining activity at 10 µM (FGR; FGR, 10uM, ATP 50 uM, Data 1, Data 2, read-out: % Enzyme Activity (relative to DMSO controls)): 26.1%
- inhibition at 10 µM (FGR; read-out: % inhibition at 10 uM: FGR, 10 μM, Fig 6C median ± standard deviation (n = 2)): 71 ± 4%
- remaining activity at 10 µM (ABL1; ABL1, 10uM, ATP 40 uM, Data 1, Data 2, read-out: % Enzyme Activity (relative to DMSO controls)): 80%
- inhibition at 10 µM (ABL1; read-out: % inhibition at 10 uM: ABL1, 10 μM, Fig 6C median ± standard deviation (n = 2)): 19 ± 2%
- remaining activity at 10 µM (YES/YES1; YES/YES1, 10uM, ATP 50 uM, Data 1, Data 2, read-out: % Enzyme Activity (relative to DMSO controls)): 92%
- inhibition at 10 µM (YES/YES1; read-out: % inhibition at 10 uM: YES, 10 μM, Fig 6C median ± standard deviation (n = 2)): 9 ± 1%
- remaining activity at 10 µM (ABL2/ARG; ABL2/ARG, 10uM, ATP 30 uM, Data 1, Data 2, read-out: % Enzyme Activity (relative to DMSO controls)): 63.6%
- inhibition at 10 µM (ABL2/ARG; read-out: % inhibition at 10 uM: ABL2, 10 μM, Fig 6C median ± standard deviation (n = 2)): 32 ± 7%
- pActivity, HSP90AB1 (HSP90AB1): 6.55
- remaining activity at 10 µM (TRKC; TRKC, 10uM, ATP 100 uM, Data 1, Data 2, read-out: % Enzyme Activity (relative to DMSO controls)): 96.1%
- inhibition at 10 µM (TRKC; read-out: % inhibition at 10 uM: TRKC, 10 μM, Fig 6C median ± standard deviation (n = 2)): 5 ± 1%
- remaining activity at 10 µM (TRKA; TRKA, 10uM, ATP 100 uM, Data 1, Data 2, read-out: % Enzyme Activity (relative to DMSO controls)): 34.6%
- inhibition at 10 µM (TRKA; read-out: % inhibition at 10 uM: TRKA, 10 μM, Fig 6C median ± standard deviation (n = 2)): 66 ± 1%
- remaining activity at 10 µM (PASK; PASK, 10uM, ATP 50 uM, Data 1, Data 2, read-out: % Enzyme Activity (relative to DMSO controls)): 101%
- inhibition at 10 µM (PASK; read-out: % inhibition at 10 uM: PASK, 10 μM, Fig 6C median ± standard deviation (n = 2)): 0%
- remaining activity at 10 µM (FYN; FYN, 10uM, ATP 30 uM, Data 1, Data 2, read-out: % Enzyme Activity (relative to DMSO controls)): 31.4%
- inhibition at 10 µM (FYN; read-out: % inhibition at 10 uM: FYN, 10 μM, Fig 6C median ± standard deviation (n = 2)): 69%
- remaining activity at 10 µM (LCK; LCK, 10uM, ATP 15 uM, Data 1, Data 2, read-out: % Enzyme Activity (relative to DMSO controls)): 61.4%
- inhibition at 10 µM (LCK; read-out: % inhibition at 10 uM: LCK, 10 μM, Fig 6C median ± standard deviation (n = 2)): 36 ± 4%
- remaining activity at 10 µM (DDR1; DDR1, 10uM, ATP 100 uM, Data 1, Data 2, read-out: % Enzyme Activity (relative to DMSO controls)): 20.1%
- inhibition at 10 µM (DDR1; read-out: % inhibition at 10 uM: DDR1, 10 μM, Fig 6C median ± standard deviation (n = 2)): 81%
- pActivity, LTK (LTK): 5.6
- pActivity, PIM1 (PIM1): 5.8
- % inhibition at 10 uM: PEAK1 (PEAK1; 10 μM, Fig 6C median ± standard deviation (n = 2)): 83 ± 1%
- remaining activity at 10 µM (PEAK1; PEAK1, 10uM, ATP 30 uM, Data 1, Data 2, read-out: % Enzyme Activity (relative to DMSO controls)): 16.4%
- inhibition at 10 µM (PEAK1; read-out: % inhibition at 10 uM: PEAK1, 10 μM, Fig 6C median ± standard deviation (n = 2)): > 70%
